Test results reported in patent US7144731B2, “SCF antibody compositions and methods of using the same” (Amgen Inc., priority 1989, dated 2006).
“Also recorded” adds a separate entry of the source.

B1: SCF^1-130: E. coli human SCF analog, amino acids 1 to 130 (protein)
chain: EGICRNRVTNNVKDVTKLVANLPKDYMITLKYVPGMDVLPSHCWISEMVVQLSDSLTDLLDKFSNISEGLSNYSIIDKLVNIVDDLVECVKENSSKDLKKSFKSPEPRLFTPEEFFRIFNRSIDAFKDFV

Assays:
[1] = test system: Balb/c mice; assay: 5-FU experimental thrombocytopenia; format: in vivo, mouse
Procedure: Balb/c mice were either untreated or treated intravenously with 5-fluorouracil (150 mg/kg) on Day 0 (n=5). Blood analyses were performed on the indicated days as in legend to FIG. 53. Error bars are present, but not discernable, in some of the control points. […] After Day 12, platelet counts appeared to cycle from normal to high levels throughout the 40 day testing period. […] Two Balb/c mice per group were sacrificed at the indicated days. Cells from bone marrow (Panel A) or spleen (Panel B) were aliquoted at 100,000/well of a microtiter plate and stained for acetylcholinesterase according to published procedures, Long et al., Immature megakaryocytes in the mouse: Morphology and quantitation by acetlycholinesterase staining. Blood 58: 1032, 1981. Data points are the percentage of ACH+ cells per well for individual animals.
Platelet volumes also increase after 5-FU (FIG. 57). The data in this figure were generated from the same blood samples collected in FIG. 55. Mean Platelet Volume (MPV) is one of the parameters analyzed by the Sysmex Cell Analyzer.
The possibility of a relationship between SCF and the physiological regulator of platelet production induced in the 5-FU thrombocytopenic model was explored. 5-FU was given to normal mice and SCF mRNA expression levels quantitated in bone marrow cells collected on the days indicated in FIG. 58. In FIG. 58, one million cells were lysed in SDS buffer and the lysate was analyzed for the presence of mRNA specific for murine SCF. […] RNA sense strand standards for quantitation of the hybridization assays were produced by runoff transcription of the same region in the direction opposite to the direction of probe synthesis using tracer quantities of ^35S-UTP and 0.2 mM unlabeled UTP.
SCF or actin mRNA levels were quantitated as follows. […] After addition of 5 mls Liquiscint (New England Nuclear; Boston, Mass.) samples were counted 20 minutes or to 3% error. […]

[2] = target: T1, SCF receptor (OCIM1 plasma membrane) (Homo sapiens, UniProt P10721); assay: SCF radioreceptor assay; format: binding
T1 construct: endogenous in cells; host or cells: OCIM1 human erythroleukemic cells, plasma membrane preparation
Procedure: OCIM1 cells, [Papayannopoulou et al., Blood 72:1029–1038 (1988)] are a human erythroleukemic cell line expressing many human SCF receptors per cell. These cells are grown in Iscove's Modified Dulbecco's Medium, 10% FBS, and 1× glutamine and passaged 3 times a week to 1×10^5 cells/ml.
Preparation of the OCIM1 plasma membrane is as follows with all steps performed on ice.
First, 40 T175 flasks of cells were grown-up in OCIM1 culture medium, for a total of 1.9×10^9 […]. The conditioned medium and 1 mM Phenyl Methyl Sulfonyl Fluoride (PMSF) protease inhibitor, was spun down in 8×250 ml tubes at 1000 rpm for 10 minutes at 4° C. Cells were washed with PBS and repelleted in 4×50 ml centrifuge tubes at 1000 rpm for 10 minutes at 4° C. Cells were resuspended in 20 ml ice cold PBS with glucose sodium pyruvate (Gibco Cat #310-4287). The 20 ml cell solution was put into a pre-pressurized, pre-chilled (4° C.) “cell bomb” designed to lyse the cells. Cells were pressurized at 400–650 PSI for 10 minutes to establish equilibrium. When the pressure is released cell lysis occurs.
At this point the cells were checked for the percentage of cell lysis. 90% lysis was common. The cell suspension was resuspended in 80 mls sucrose buffer (0.25M sucrose, 10 mM Tris, 1 mM EDTA in double distilled (dd) H2O, filtered through a 0.45 u filter, pH 7.0) and divided between two 40 ml screwcap tubes. Tubes were spun at 5900 RPM for 10 minutes in a Beckman J2-21 centrifuge, JA-20 rotor at 4° C. The supernatants were saved and spun one more time as above to further remove any unwanted material. Supernatants were saved and distributed equally into 2 nalgene 40 ml centrifuge tubes. These supernatants were centrifuged at 16,000 RPM 4° C. for 30 min. in J2-21 centrifuge, JA-20 rotor. These supernatants were discarded being careful to save pellets. Each pellet was resuspended in sucrose buffer so there were 20 mls per tube in 4×36 ml plastic ultracentrifuge tubes. Using a 20 ml syringe and a large trochar, the solution was carefully underlayered in each tube with ice cold 36% sucrose solution (36.1 g sucrose/100 mls ddH2O), bringing the level of the liquid to within 2 mm of the top of the tube. Without disturbing the interface, each tube was carefully placed into each of […] titanium ultracentrifuge tubes. Tubes were centrifuged at 27,000 RPM, 4° C. for 75 minutes in an ultracentrifuge. These tubes were carefully removed from the rotor and from titanium buckets, placed in a rack with the 36% sucrose interface visible. The membraneous material at the interface was collected with a pasteur pipet and transfered into 2 clean nalgene 40 ml centrifuge tubes. Volume was brought up to 40 mls with ice cold sucrose buffer. Tubes were balanced and centrifuged as before at 5900 RPM in J2-21 centrifuge. […]

[3] = test system: UT-7 cells; assay: UT-7 ^3H-thymidine uptake assay; format: cell-based, human
Procedure: UT-7 cells are a human megakaryocyte, huGM-CSF responsive cell line obtained from John Adamson, New York Blood Center, New York, N.Y. UT-7 cells were cultured in Iscove's Modified Dulbecco's Medium, 10% FBS, 1× glutamine, 5 \g/ml huGM-CSF. Cells are passaged twice a week at 1×10^5 cells/ml.
Cells were washed twice in phosphate buffered saline (PBS) and resuspended in RPMI medium with 4% FBS and glutamine penicillin streptomycin (GPS) (Irvine Scientific Cat No. 9316 used at 1% volume per volume) at 4×10^4 cells/ml before use. Human SCF along with specific samples were added to 4000 cells/well in 96 well plates and were cultured for 72 hrs. 0.5 uCi/well of ^3H-Thymidine was then added to each plate, plates were harvested and counted 4 hours later.

Molecule	megakaryocyte numbers (ACH+ cells) in bone marrow and spleen ([1]; 150 mg/kg i.v.)	platelet volumes ([1]; 150 mg/kg i.v.)	platelet counts, time course ([1]; 150 mg/kg i.v. on Day 0)	specific activity in the radioreceptor assay [2]	specific activity in the UT-7 assay [3]
O=c1[nH]cc(F)c(=O)[nH]1 [5-FU, 5-fluorouracil]	rise dramatically	increase	thrombocytopenic by Day 5; also recorded: rebound thrombocytosis	–	–
B1	–	–	–	about 50 % of the value for SCF^1-164	about 15 % of the value for SCF^1-164
